According to patent US12116358B2, “Substituted indoles and methods of use thereof” (EPIZYME, INC., priority 2018, dated 2024):

Columns and labels:
[1] = system: multiple myeloma cell lines (t(4;14) and non-t(4;14)); experiment: 14 day LTP assay in multiple myeloma cells; type: cell-based, human; conditions: FIG. 1 scatter graph
KMS-11 tumor = experiment: Anti-tumor activity in human myeloma KMS-11 tumor-bearing NOD SCID mice (subcutaneous xenograft); type: in vivo
From the text: Evaluation of the Anti-Tumor Activity of Cpd. […] Based on the tumor volume and body weight, mice were assigned to respective groups such that the average starting tumor size and body weight was the same for each treatment group. […] The tumor cells were routinely subcultured before confluence, not to exceed 4-5 passages. The cells growing in an exponential growth phase were harvested and counted for tumor inoculation. […] The treatment was started when the mean tumor size reached 118 mm^3. Mice were then assigned to groups such that the mean tumor volume was the same for each treatment group and time point. […] Tumor Measurements The measurement of tumor size was conducted twice weekly with a caliper and the tumor volume (mm3) is estimated using the formula: TV=a×b×b/2, where “a” and “b” are long and short diameters of a tumor, respectively. The TVs are used for calculation of the tumor growth inhibition and tumor growth delay. […] The “[…]” and “TVinitial” are the mean tumor volumes on the final day and initial day of dosing. After take down 5 mice of G2 G5 post the final dosing, the remaining mice were maintained for monitoring tumor outgrowth twice weekly. […] Animals showing obvious signs of severe distress and/or pain were humanely sacrificed by carbon dioxide followed by cervical dislocation to ensure death. Samples Collection Tumor samples and plasma were collect at the indicated day. Data Acquisition and Statistical Analysis Data Acquisition: Protocol-required measurements and observations were recorded manually on appropriate forms, or directly on a computerized database. Statistical Analysis: All statistical tests were conducted, and the level of significance was set at 5% or P<0.05. The group means, standard deviation were calculated for all measurement parameters as study designed. Two-way RM ANOVA followed by Tukeys post hoc comparisons of the means. The therapeutic effects of compound as a single agent in the KMS-11 subcutaneous xenograft model were evaluated.

KMS-34 cells = experiment: 14 day KMS-34 long term proliferation (LTP) assay; conditions: KMS-34, t(4;14) multiple myeloma cell line; 14-day assay; FIG. 2
Experimental: 14 Day KMS-34 Long Term Proliferation (LTP) Assay
Incubate plates for 96 hrs.
The final concentration is 1 μm.
To calculate growth for days 4, 7, 11, and 14:
1. Calculate the split factor for day 4 to 7, day 7 to 11, and day 11-14 The split factor is the viable cells/mL on Day X (either 4, 7, or 11) divided by the density the cells are being split back to.
2. For growth of cells from day 4 to 7, multiply the day 7 viable cells/mL density by the split factor from day 4.
4. For growth of cells from Day 11 to 14, multiply the Day 14 viable cells/mL density by the days 4, 7, and 11 split factors.
5. Plot growth on semi-log chart (viable cells/mL on Y axis, in log, and days on X axis).
From 5 mM to 0.25 μm. […] Mix well by pipetting up and down.

[2] = G2, 31.25 mg/kg, p.o., BID × 28 days, PG-Day 25

Compound: CC(=O)N1CCN([C@H]2CCC[C@@H](NC(=O)c3cc4c(F)ccc(C)c4[nH]3)C2)CC1 [Cpd. No. 15, N-((1R,3S)-3-(4-acetylpiperazin-1-yl)cyclohexyl)-4-fluoro-7-methyl-1H-indole-2-carboxamide]
- anti-proliferative effects in t(4;14) and non-t(4;14) multiple myeloma cell lines [1]: selective anti-proliferative effects
- Tumor volume (Mean ± SEM) (KMS-11 tumor; G2, 31.25 mg/kg p.o. BID 28 days, PG-D1 (D 7)): 119 ± 6 mm3
- Tumor volume (Mean ± SEM) (KMS-11 tumor; G2, 31.25 mg/kg p.o. BID 28 days, PG-D4 (D 10)): 225 ± 21 mm3
- Tumor volume (Mean ± SEM) (KMS-11 tumor; G2, 31.25 mg/kg p.o. BID 28 days, PG-D7 (D 13)): 271 ± 19 mm3
- Tumor volume (Mean ± SEM) (KMS-11 tumor; G2, 31.25 mg/kg p.o. BID 28 days, PG-D11 (D 17)): 408 ± 46 mm3
- Tumor volume (Mean ± SEM) (KMS-11 tumor; G2, 31.25 mg/kg p.o. BID 28 days, PG-D14 (D 20)): 478 ± 54 mm3
- Tumor volume (Mean ± SEM) (KMS-11 tumor; G2, 31.25 mg/kg p.o. BID 28 days, PG-D18 (D 24)): 609 ± 71 mm3
- Tumor volume (Mean ± SEM) (KMS-11 tumor; G2, 31.25 mg/kg p.o. BID 28 days, PG-D21 (D 27)): 686 ± 80 mm3
- Tumor volume (Mean ± SEM) (KMS-11 tumor; G2, 31.25 mg/kg p.o. BID 28 days, PG-D25 (D 31)): 763 ± 97 mm3
- Tumor volume post the final dosing (Mean ± SEM) (KMS-11 tumor; G2, 31.25 mg/kg p.o. BID 28 days, PG-D28 (D 34)): 882 ± 131 mm3
- Tumor volume post the final dosing (Mean ± SEM) (KMS-11 tumor; G2, 31.25 mg/kg p.o. BID 28 days, PG-D32 (D 38)): 1123 ± 149 mm3
- Tumor volume post the final dosing (Mean ± SEM) (KMS-11 tumor; G2, 31.25 mg/kg p.o. BID 28 days, PG-D35 (D 41)): 1499 ± 196 mm3
- Tumor volume post the final dosing (Mean ± SEM) (KMS-11 tumor; G2, 31.25 mg/kg p.o. BID 28 days, PG-D39 (D 45)): 1747 ± 243 mm3
- Tumor Size at PG-Day 25 (Mean ± SEM) (KMS-11 tumor; G2, 31.25 mg/kg, p.o., BID × 28 days): 763 ± 97 mm3
- TGI (KMS-11 tumor; [2]): 74%
- ΔT/ΔC (KMS-11 tumor; [2]): 26%
- Tumor volume (Mean ± SEM) (KMS-11 tumor; G3, 62.5 mg/kg p.o. BID 28 days, PG-D1 (D 7)): 117 ± 6 mm3
- Tumor volume (Mean ± SEM) (KMS-11 tumor; G3, 62.5 mg/kg p.o. BID 28 days, PG-D4 (D 10)): 178 ± 11 mm3
- Tumor volume (Mean ± SEM) (KMS-11 tumor; G3, 62.5 mg/kg p.o. BID 28 days, PG-D7 (D 13)): 216 ± 11 mm3
- Tumor volume (Mean ± SEM) (KMS-11 tumor; G3, 62.5 mg/kg p.o. BID 28 days, PG-D11 (D 17)): 231 ± 16 mm3
- Tumor volume (Mean ± SEM) (KMS-11 tumor; G3, 62.5 mg/kg p.o. BID 28 days, PG-D14 (D 20)): 184 ± 17 mm3
- Tumor volume (Mean ± SEM) (KMS-11 tumor; G3, 62.5 mg/kg p.o. BID 28 days, PG-D18 (D 24)): 176 ± 22 mm3
- Tumor volume (Mean ± SEM) (KMS-11 tumor; G3, 62.5 mg/kg p.o. BID 28 days, PG-D21 (D 27)): 129 ± 25 mm3
- Tumor volume (Mean ± SEM) (KMS-11 tumor; G3, 62.5 mg/kg p.o. BID 28 days, PG-D25 (D 31)): 115 ± 30 mm3
- Tumor volume post the final dosing (Mean ± SEM) (KMS-11 tumor; G3, 62.5 mg/kg p.o. BID 28 days, PG-D28 (D 34)): 117 ± 36 mm3
- Tumor volume post the final dosing (Mean ± SEM) (KMS-11 tumor; G3, 62.5 mg/kg p.o. BID 28 days, PG-D32 (D 38)): 65 ± 23 mm3
- Tumor volume post the final dosing (Mean ± SEM) (KMS-11 tumor; G3, 62.5 mg/kg p.o. BID 28 days, PG-D35 (D 41)): 150 ± 60 mm3
- Tumor volume post the final dosing (Mean ± SEM) (KMS-11 tumor; G3, 62.5 mg/kg p.o. BID 28 days, PG-D39 (D 45)): 309 ± 108 mm3
- Tumor Size at PG-Day 25 (Mean ± SEM) (KMS-11 tumor; G3, 62.5 mg/kg, p.o., BID × 28 days): 115 ± 30 mm3
- ΔT/ΔC (KMS-11 tumor; G3, 62.5 mg/kg, p.o., BID × 28 days, PG-Day 25): 0%
- Tumor volume (Mean ± SEM) (KMS-11 tumor; G4, 125 mg/kg p.o. BID 18 days then BID(3D− 4D+) 7 days, PG-D1 (D 7)): 117 ± 6 mm3
- Tumor volume (Mean ± SEM) (KMS-11 tumor; G4, 125 mg/kg p.o. BID 18 days then BID(3D− 4D+) 7 days, PG-D4 (D 10)): 191 ± 11 mm3
- Tumor volume (Mean ± SEM) (KMS-11 tumor; G4, 125 mg/kg p.o. BID 18 days then BID(3D− 4D+) 7 days, PG-D7 (D 13)): 219 ± 9 mm3
- Tumor volume (Mean ± SEM) (KMS-11 tumor; G4, 125 mg/kg p.o. BID 18 days then BID(3D− 4D+) 7 days, PG-D11 (D 17)): 196 ± 11 mm3
- Tumor volume (Mean ± SEM) (KMS-11 tumor; G4, 125 mg/kg p.o. BID 18 days then BID(3D− 4D+) 7 days, PG-D14 (D 20)): 119 ± 10 mm3
- Tumor volume (Mean ± SEM) (KMS-11 tumor; G4, 125 mg/kg p.o. BID 18 days then BID(3D− 4D+) 7 days, PG-D18 (D 24)): 99 ± 16 mm3
- Tumor volume (Mean ± SEM) (KMS-11 tumor; G4, 125 mg/kg p.o. BID 18 days then BID(3D− 4D+) 7 days, PG-D21 (D 27)): 85 ± 20 mm3
- Tumor volume (Mean ± SEM) (KMS-11 tumor; G4, 125 mg/kg p.o. BID 18 days then BID(3D− 4D+) 7 days, PG-D25 (D 31)): 131 ± 39 mm3
- Tumor volume post the final dosing (Mean ± SEM) (KMS-11 tumor; G4, 125 mg/kg p.o. BID 18 days then BID(3D− 4D+) 7 days, PG-D28 (D 34)): 99 ± 20 mm3
- Tumor volume post the final dosing (Mean ± SEM) (KMS-11 tumor; G4, 125 mg/kg p.o. BID 18 days then BID(3D− 4D+) 7 days, PG-D32 (D 38)): 239 ± 68 mm3
- Tumor volume post the final dosing (Mean ± SEM) (KMS-11 tumor; G4, 125 mg/kg p.o. BID 18 days then BID(3D− 4D+) 7 days, PG-D35 (D 41)): 421 ± 108 mm3
- Tumor volume post the final dosing (Mean ± SEM) (KMS-11 tumor; G4, 125 mg/kg p.o. BID 18 days then BID(3D− 4D+) 7 days, PG-D39 (D 45)): 757 ± 215 mm3
- Tumor Size at PG-Day 25 (Mean ± SEM) (KMS-11 tumor; G4, 125 mg/kg, p.o., BID × 18 days, BID(3D− 4D+) × 7 days): 131 ± 39 mm3
- ΔT/ΔC (KMS-11 tumor; G4, 125 mg/kg, p.o., BID × 18 days, BID(3D− 4D+) × 7 days, PG-Day 25): 1%
- Tumor volume (Mean ± SEM) (KMS-11 tumor; G5, 175 mg/kg p.o. BID 11 days then BID(3D− 4D+) 14 days, PG-D1 (D 7)): 119 ± 6 mm3
- Tumor volume (Mean ± SEM) (KMS-11 tumor; G5, 175 mg/kg p.o. BID 11 days then BID(3D− 4D+) 14 days, PG-D4 (D 10)): 192 ± 13 mm3
- Tumor volume (Mean ± SEM) (KMS-11 tumor; G5, 175 mg/kg p.o. BID 11 days then BID(3D− 4D+) 14 days, PG-D7 (D 13)): 221 ± 17 mm3
- Tumor volume (Mean ± SEM) (KMS-11 tumor; G5, 175 mg/kg p.o. BID 11 days then BID(3D− 4D+) 14 days, PG-D11 (D 17)): 199 ± 24 mm3
- Tumor volume (Mean ± SEM) (KMS-11 tumor; G5, 175 mg/kg p.o. BID 11 days then BID(3D− 4D+) 14 days, PG-D14 (D 20)): 167 ± 27 mm3
- Tumor volume (Mean ± SEM) (KMS-11 tumor; G5, 175 mg/kg p.o. BID 11 days then BID(3D− 4D+) 14 days, PG-D18 (D 24)): 189 ± 32 mm3
- Tumor volume (Mean ± SEM) (KMS-11 tumor; G5, 175 mg/kg p.o. BID 11 days then BID(3D− 4D+) 14 days, PG-D21 (D 27)): 214 ± 45 mm3
- Tumor volume (Mean ± SEM) (KMS-11 tumor; G5, 175 mg/kg p.o. BID 11 days then BID(3D− 4D+) 14 days, PG-D25 (D 31)): 225 ± 45 mm3
- Tumor volume post the final dosing (Mean ± SEM) (KMS-11 tumor; G5, 175 mg/kg p.o. BID 11 days then BID(3D− 4D+) 14 days, PG-D28 (D 34)): 269 ± 146 mm3
- Tumor volume post the final dosing (Mean ± SEM) (KMS-11 tumor; G5, 175 mg/kg p.o. BID 11 days then BID(3D− 4D+) 14 days, PG-D32 (D 38)): 589 ± 378 mm3
- Tumor volume post the final dosing (Mean ± SEM) (KMS-11 tumor; G5, 175 mg/kg p.o. BID 11 days then BID(3D− 4D+) 14 days, PG-D35 (D 41)): 732 ± 422 mm3
- Tumor volume post the final dosing (Mean ± SEM) (KMS-11 tumor; G5, 175 mg/kg p.o. BID 11 days then BID(3D− 4D+) 14 days, PG-D39 (D 45)): 1183 ± 686 mm3
- Tumor Size at PG-Day 25 (Mean ± SEM) (KMS-11 tumor; G5, 175 mg/kg, p.o., BID × 18 days, BID(3D− 4D+) × 14 days): 225 ± 45 mm3
- ΔT/ΔC (KMS-11 tumor; G5, 175 mg/kg, p.o., BID × 18 days, BID(3D− 4D+) × 14 days, PG-Day 25): 4%
- type of response of KMS-34 cells (KMS-34 cells): cytotoxic response
